Molecules are shown by their SMILES.

In this assay the target is FER (Homo sapiens, UniProt P16591). Nature of the assay: pY402-FER autophosphorylation immunoblot in HEK293FT cells transfected with pLV-FER, […] h. It counts as cell-based. Background: Immunoblotting shows a protein as a band on a membrane.
FER, sequence (P16591 whole entry): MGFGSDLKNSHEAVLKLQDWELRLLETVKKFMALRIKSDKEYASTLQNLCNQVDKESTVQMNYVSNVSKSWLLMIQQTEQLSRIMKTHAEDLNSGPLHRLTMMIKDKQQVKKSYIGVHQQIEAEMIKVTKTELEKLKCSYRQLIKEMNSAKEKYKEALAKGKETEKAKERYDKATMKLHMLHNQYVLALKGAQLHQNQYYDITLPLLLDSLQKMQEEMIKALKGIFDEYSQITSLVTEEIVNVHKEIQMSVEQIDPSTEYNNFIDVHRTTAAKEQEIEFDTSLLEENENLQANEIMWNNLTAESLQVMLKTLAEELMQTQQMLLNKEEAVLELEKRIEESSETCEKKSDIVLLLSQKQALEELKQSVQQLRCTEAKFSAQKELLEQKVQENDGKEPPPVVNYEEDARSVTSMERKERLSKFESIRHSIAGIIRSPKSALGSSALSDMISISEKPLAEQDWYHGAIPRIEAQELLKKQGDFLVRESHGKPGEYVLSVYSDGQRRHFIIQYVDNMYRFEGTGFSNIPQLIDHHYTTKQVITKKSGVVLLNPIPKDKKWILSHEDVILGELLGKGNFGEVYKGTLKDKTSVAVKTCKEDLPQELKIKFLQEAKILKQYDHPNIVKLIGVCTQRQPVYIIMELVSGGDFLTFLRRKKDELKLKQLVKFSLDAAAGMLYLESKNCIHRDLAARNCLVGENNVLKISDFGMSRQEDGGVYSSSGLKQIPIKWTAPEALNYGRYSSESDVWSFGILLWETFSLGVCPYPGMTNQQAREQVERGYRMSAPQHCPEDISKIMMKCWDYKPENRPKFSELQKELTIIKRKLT

`COc1cc(N2CCC(N3CCN(C)CC3)CC2)ccc1Nc1ncc(Cl)c(Nc2ccccc2P(C)(C)=O)n1` [brigatinib] came in with an IC50 of 138 nM.

A word on the IC50: it is the concentration that gives 50% inhibition. Read a high IC50 as weaker potency in that assay.

Values taken from PMC10276154, “Development of the nonreceptor tyrosine kinase FER-targeting PROTACs as a potential strategy for antagonizing ovarian cancer cell motility and invasiveness” (The Journal of Biological Chemistry, 2023).
